Results from PMC9229919, “4-Aminoquinoline-Based Adamantanes as Potential Anticholinesterase Agents in Symptomatic Treatment of Alzheimer’s Disease” (Pharmaceutics, 2022).
Read-outs that look alike come from different tables or passages of the source.

Assays:
[1] = Reverse-phase thin-layer chromatographic lipophilicity (RF, RM0); assay type: physicochemical; settings: for RM0: intercept of RM = RM0 + bC; for b: slope of RM = RM0 + bC
Protocol: Chromatographic determination of lipophilicity
Merck, Darmstadt, Germany). The mobile phase contained organic modifier (methanol, acetone or dioxane), water and hydrochloric acid.
Methanol was varied in the range […]
with an increment of 10%. […]
before chromatogram development. The solvent developing distance was 4.5 cm. Detection of […]
All experiments were performed at ambient temperature (22±2 °C). Retention parameters were calculated as previously described. […]

recombinant human AChE = target: T1, recombinant human AChE (Homo sapiens, UniProt P22303); assay: biochemical; assay type: biochemical
T1 construct: gift of Dr Florian Nachon (Armed Forces Biomedical Research Institute, Brétigny-sur-Orge, France)
T1 sequence (P22303 32-614): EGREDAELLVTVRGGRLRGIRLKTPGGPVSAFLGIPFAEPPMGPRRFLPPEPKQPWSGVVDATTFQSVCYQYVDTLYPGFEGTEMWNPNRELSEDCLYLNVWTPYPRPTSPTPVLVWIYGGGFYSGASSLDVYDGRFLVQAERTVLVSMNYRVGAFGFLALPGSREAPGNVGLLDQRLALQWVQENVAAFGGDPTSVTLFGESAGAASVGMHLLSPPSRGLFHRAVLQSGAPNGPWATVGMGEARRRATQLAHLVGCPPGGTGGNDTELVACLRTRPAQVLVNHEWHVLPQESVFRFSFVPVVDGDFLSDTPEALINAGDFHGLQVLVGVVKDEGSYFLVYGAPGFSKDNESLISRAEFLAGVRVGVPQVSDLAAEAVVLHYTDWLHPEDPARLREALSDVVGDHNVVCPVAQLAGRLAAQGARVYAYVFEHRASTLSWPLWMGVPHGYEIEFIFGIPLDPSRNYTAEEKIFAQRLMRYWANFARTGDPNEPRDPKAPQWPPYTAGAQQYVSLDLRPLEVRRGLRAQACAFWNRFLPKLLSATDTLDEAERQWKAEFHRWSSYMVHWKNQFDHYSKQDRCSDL
Protocol: (§1) Acetylthiocholine (ATCh) and 5,5′-dithiobis(2-nitrobenzoic acid) (DTNB) were purchased from Sigma-Aldrich, St. Louis, MO, USA. ATCh was dissolved in water and DTNB in 0.1 M sodium phosphate buffer (pH 7.4). The 4-aminoquinilines were dissolved in DMSO and all further dilutions were made in water.
(§2) The sources of AChE and BChE were purified human BChE and recombinant human AChE that was kindly provided by Dr Florian Nachon (Département de Toxicologie, Armed Forces Biomedical Research Institute, Brétigny-sur-Orge, France). […] The enzymes were diluted in sodium phosphate buffer 0.1 M (pH 7.4) containing 0.1% BSA.
(§3) Enzyme activities were measured spectrophotometrically using a slightly modified Ellman method, as described earlier. […] At least three inhibitor concentrations for each substrate concentration were used in at least three experiments. The apparent inhibition constant (Ki,app) was calculated using the Hunter–Downs Equation and linear regression analysis:(1) Ki,app=vi·i/v0−vi=Ki+Ki/KS·s where the y-intercept determines the enzyme-inhibitor dissociation constant (Ki), while the x-intercept determines the enzyme-substrate dissociation constant, KS.
(§4) The Hunter–Downs Equation was used under the assumption that the substrate, due to relatively low concentrations used in experiments, would bind only to the catalytic site of the enzymes, while the inhibitors would bind to both CAS and/or PAs. This allowed the type of inhibition to be determined from Ki,app vs. substrate concentration ([S]) dependency on Hunter–Downs plot.
(§5) The final content of DMSO in the measurements was up to 0.2%. […] The measurements were performed at 25 °C on a Tecan Infinite M200Pro plate reader (Tecan Austria GmbH, Salzburg, Austria).

purified human BChE = target: T2, purified human BChE (Homo sapiens, UniProt P06276); assay: biochemical; assay type: biochemical
T2 construct: possibly also a gift of Dr Florian Nachon (the sentence is ambiguous)
T2 sequence (P06276 29-602): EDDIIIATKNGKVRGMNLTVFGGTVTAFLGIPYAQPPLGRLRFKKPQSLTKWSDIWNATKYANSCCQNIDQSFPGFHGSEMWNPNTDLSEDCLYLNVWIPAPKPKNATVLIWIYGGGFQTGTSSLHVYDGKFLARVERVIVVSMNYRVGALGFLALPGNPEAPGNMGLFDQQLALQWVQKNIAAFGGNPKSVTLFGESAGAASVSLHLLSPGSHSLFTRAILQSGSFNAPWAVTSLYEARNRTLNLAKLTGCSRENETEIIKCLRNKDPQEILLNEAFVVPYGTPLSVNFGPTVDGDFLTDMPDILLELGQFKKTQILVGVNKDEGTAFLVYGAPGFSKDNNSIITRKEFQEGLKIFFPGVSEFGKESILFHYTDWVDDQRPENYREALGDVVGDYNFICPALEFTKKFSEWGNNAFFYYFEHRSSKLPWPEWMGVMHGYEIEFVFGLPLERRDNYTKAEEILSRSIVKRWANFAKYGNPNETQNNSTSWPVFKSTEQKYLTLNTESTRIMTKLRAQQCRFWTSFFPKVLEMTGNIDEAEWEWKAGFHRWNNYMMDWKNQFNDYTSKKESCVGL
Protocol: as §1, §2, §3, §4, §5

[2] = Ferric reducing antioxidant power (FRAP) assay; settings: for FRAP: mean ± standard error of three experiments;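 on FRAP: expressed as µM Fe2+ equivalents from an FeSO4·7H2O standard curve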
Protocol: . All the chemicals were purchased from Sigma-Aldrich (St. Louis, MO, USA), except for tripyridyltriazine (TPTZ) (Fluka, Buchs, Switzerland) and FeCl3 (Kemika, Zagreb, Croatia). The FRAP assay was assessed according to Benzie and Strain [53] with slight procedure adjustments for 96-well microplates. The method is based on the reduction of the ferric-tripyridyltriazine (Fe^3+-TPTZ) complex to ferrous tripyridyltriazine (Fe^2+-TPTZ) by the action of electron-donating compounds at a low pH. Briefly, the FRAP reagent was prepared by mixing acetate buffer (300 mM, pH 3.6), a solution of 10 mM TPTZ in 40 mM HCl, and 20 mM FeCl3 at 10:1:1 (v/v/v). Then, 240 μL of FRAP reagent and 10 μL of sample solution were added to a 96-well plate and incubated at 37 °C for 60 min. The absorbance was measured at 593 nm using a microplate reader (Infinite M200PRO, Tecan Austria GmbH, Salzburg, Austria) against a blank. The reducing capacity was determined for 10 and 100 µM compound concentrations. […]. All measurements were performed in three independent experiments. FRAP values, denominating the reduction of ferric-tripyridyltriazine (Fe^3+-TPTZ) to ferrous tripyridyltriazine (Fe^2+-TPTZ) by 4-aminoquinolines were calculated based on a standard curve obtained using […].

[3] = Acetone/Water/Hydrochloric acid (conc.)
[4] = Dioxane/Water/Hydrochloric acid (conc.)
[5] = Methanol/Water/Hydrochloric acid (conc.)

Question: With `Clc1ccc2c(NCCCCCCNCC34CC5CC(CC(C5)C3)C4)ccnc2c1` [Compound 4] as the compound, how does the RM0 [1, 3] read?
Answer: 2.036

Question: What about the b [1, 3] of the same compound?
Answer: 3.254

Question: What about the RM0 [1, 4] of the same compound?
Answer: 0.9103

Question: And the b [1, 4]?
Answer: 1.922

Question: And the RM0 [1, 5]?
Answer: 2.899

Question: And the b [1, 5]?
Answer: 3.742

Question: What about the “RF, Methanol/Water/Hydrochloric acid (conc.), mobile phase I” value ([1]; RP-18 silica, I = 90%MeOH/5%H2O/5%HCl) of the same compound?
Answer: 0.72

Question: What about the “RF, Dioxane/Water/Hydrochloric acid (conc.), mobile phase II” value ([1]; RP-18 silica, II = 80%Dioxane/15%H2O/5%HCl) of the same compound?
Answer: 0.78

Question: What about the “RF, Methanol/Water/Hydrochloric acid (conc.), mobile phase II” value ([1]; RP-18 silica, II = 85%MeOH/10%H2O/5%HCl) of the same compound?
Answer: 0.66

Question: And the “RF, Acetone/Water/Hydrochloric acid (conc.), mobile phase III” value ([1]; RP-18 silica, III = 70%AC/25%H2O/5%HCl)?
Answer: 0.6

Question: What about the “RF, Dioxane/Water/Hydrochloric acid (conc.), mobile phase III” value ([1]; RP-18 silica, III = 70%Dioxane/25%H2O/5%HCl) of the same compound?
Answer: 0.73

Question: And the “RF, Methanol/Water/Hydrochloric acid (conc.), mobile phase III” value ([1]; RP-18 silica, III = 80%MeOH/15%H2O/5%HCl)?
Answer: 0.47

Question: What about the “RF, Dioxane/Water/Hydrochloric acid (conc.), mobile phase IV” value ([1]; RP-18 silica, IV = 60%Dioxane/35%H2O/5%HCl) of the same compound?
Answer: 0.72

Question: And the “RF, Acetone/Water/Hydrochloric acid (conc.), mobile phase IV” value ([1]; RP-18 silica, IV = 65%AC/30%H2O/5%HCl)?
Answer: 0.55

Question: What about the “RF, Methanol/Water/Hydrochloric acid (conc.), mobile phase IV” value ([1]; RP-18 silica, IV = 75%MeOH/20%H2O/5%HCl) of the same compound?
Answer: 0.49

Question: What about the “RF, Acetone/Water/Hydrochloric acid (conc.), mobile phase IX” value ([1]; RP-18 silica, IX = 40%AC/55%H2O/5%HCl) of the same compound?
Answer: 0.11

Question: What about the “RF, Methanol/Water/Hydrochloric acid (conc.), mobile phase IX” value ([1]; RP-18 silica, IX = 50%MeOH/45%H2O/5%HCl) of the same compound?
Answer: 0.06

Question: And the “RF, Dioxane/Water/Hydrochloric acid (conc.), mobile phase V” value ([1]; RP-18 silica, V = 50%Dioxane/45%H2O/5%HCl)?
Answer: 0.52

Question: What about the “RF, Acetone/Water/Hydrochloric acid (conc.), mobile phase V” value ([1]; RP-18 silica, V = 60%AC/35%H2O/5%HCl) of the same compound?
Answer: 0.45

Question: And the “RF, Methanol/Water/Hydrochloric acid (conc.), mobile phase V” value ([1]; RP-18 silica, V = 70%MeOH/25%H2O/5%HCl)?
Answer: 0.4

Question: What about the “RF, Dioxane/Water/Hydrochloric acid (conc.), mobile phase VI” value ([1]; RP-18 silica, VI = 40%Dioxane/55%H2O/5%HCl) of the same compound?
Answer: 0.38

Question: What about the “RF, Acetone/Water/Hydrochloric acid (conc.), mobile phase VI” value ([1]; RP-18 silica, VI = 55%AC/40%H2O/5%HCl) of the same compound?
Answer: 0.37

Question: And the “RF, Methanol/Water/Hydrochloric acid (conc.), mobile phase VI” value ([1]; RP-18 silica, VI = 65%MeOH/30%H2O/5%HCl)?
Answer: 0.31

Question: What about the “RF, Acetone/Water/Hydrochloric acid (conc.), mobile phase VII” value ([1]; RP-18 silica, VII = 50%AC/45%H2O/5%HCl) of the same compound?
Answer: 0.33

Question: And the “RF, Methanol/Water/Hydrochloric acid (conc.), mobile phase VII” value ([1]; RP-18 silica, VII = 60%MeOH/35%H2O/5%HCl)?
Answer: 0.2

Question: What about the “RF, Acetone/Water/Hydrochloric acid (conc.), mobile phase VIII” value ([1]; RP-18 silica, VIII = 45%AC/50%H2O/5%HCl) of the same compound?
Answer: 0.26

Question: What about the “RF, Methanol/Water/Hydrochloric acid (conc.), mobile phase VIII” value ([1]; RP-18 silica, VIII = 55%MeOH/40%H2O/5%HCl) of the same compound?
Answer: 0.13

Question: What about the IS (recombinant human AChE; IS = Ki(BChE)/Ki(AChE), IS > 1 selective to AChE) of the same compound?
Answer: 1.1

Question: What about the Ki (recombinant human AChE; log (Ki/µM AChE), read-out: Y Measured 1 log(ki)Ache (converted)) of the same compound?
Answer: 0.67 µM

Question: And the Ki (recombinant human AChE; ± standard error, 25 °C, ATCh substrate, read-out: Ki AChE)?
Answer: 0.67 ± 0.02 µM

Question: What about the Ki (purified human BChE; logarithm of Ki in µM, BChE, dependent variable of the QSAR model, read-out: Y Measured 2 log(ki)Bche, log (Ki/µM BChE) (converted)) of the same compound?
Answer: 0.76 µM

Question: And the Ki (purified human BChE; ± standard error, 25 °C, ATCh substrate, read-out: Ki BChE)?
Answer: 0.76 ± 0.06 µM

Question: What about the FRAP ([2]; 10 µM compound) of the same compound?
Answer: 1.9 ± 0.5 µM

Question: And the FRAP ([2]; 100 µM compound)?
Answer: 58 ± 10 µM

Question: Which FRAP ([2]; 10 µM compound) does the source give for `Nc1c2c(nc3ccccc13)CCCC2` [Tacrine, reference compound] here?
Answer: 3.4 ± 0.0 µM

Question: What about the FRAP ([2]; 100 µM compound) of the same compound?
Answer: 15 ± 2 µM

Question: And the “reducing power (in words)” value ([2]; 10 and 100 µM)?
Answer: negligible reducing power

Question: With `Cc1c(C)c2c(c(C)c1O)CCC(C)(C(=O)O)O2` (stereo not drawn) [Trolox, reference compound] as the compound, how does the FRAP ([2]; 10 µM compound) read?
Answer: 523 ± 8 µM

Question: What about the FRAP ([2]; 100 µM compound) of the same compound?
Answer: 5812 ± 68 µM
